Data taken from ChEMBL document CHEMBL1240308, “Elevated levels of oxidized cholesterol metabolites in Lewy body disease brains accelerate alpha-synuclein fibrilization” (Nat Chem Biol, 2006).
Calls of active or inactive are those of the source. The calls are words filed in the database; no cut-off is given here.

What was measured:
[1] = Cytotoxicity against human SH-SY5Y cells overexpressing alpha-synuclein after 48 hrs by MTT assay; format: cell-based; conditions: read-out: LD50
[2] = Cytotoxicity against human SH-SY5Y cells overexpressing alpha-synuclein after 48 hrs by LDH assay; format: cell-based; conditions: read-out: LD50
[3] = target: Alpha-synuclein (Homo sapiens) (UniProt P37840); experiment: Induction of alpha-synuclein aggregation in PBS buffer assessed as fluorescence after 48 hrs by Thioflavin T fluorescence assay
[4] = target: Alpha-synuclein (Homo sapiens) (UniProt P37840); experiment: Induction of alpha-synuclein aggregation in PBS buffer assessed as fluorescence after 72 hrs by Thioflavin T fluorescence assay
[5] = target: Alpha-synuclein (Homo sapiens) (UniProt P37840); experiment: Induction of alpha-synuclein aggregation in PBS buffer assessed as fluorescence after 96 hrs by Thioflavin T fluorescence assay
[6] = target: Alpha-synuclein (Homo sapiens) (UniProt P37840); experiment: Induction of alpha-synuclein aggregation in PBS buffer assessed as fluorescence after 330 hrs by Thioflavin T fluorescence assay
[7] = target: Alpha-synuclein (Homo sapiens) (UniProt P37840); experiment: Induction of alpha-synuclein aggregation in PBS buffer assessed as transition of alpha-synuclein from natively unfolded monomer to cross-beta-sheet conformation after 48 hrs by CD spectroscopy
[8] = target: Alpha-synuclein (Homo sapiens) (UniProt P37840); experiment: Induction of alpha-synuclein aggregation in PBS buffer assessed as transition of alpha-synuclein from natively unfolded monomer to cross-beta-sheet conformation after 96 hrs by CD spectroscopy
[9] = target: Alpha-synuclein (Homo sapiens) (UniProt P37840); experiment: Induction of alpha-synuclein aggregation in PBS buffer assessed as transition of alpha-synuclein from natively unfolded monomer to cross-beta-sheet conformation after 330 hrs by CD spectroscopy
[10] = target: Alpha-synuclein (Homo sapiens) (UniProt P37840); experiment: Induction of alpha-synuclein aggregation in PBS buffer assessed as alpha-synuclein monomer depletion after 48 hrs by size exclusion chromatography
[11] = target: Alpha-synuclein (Homo sapiens) (UniProt P37840); experiment: Induction of alpha-synuclein aggregation in PBS buffer assessed as alpha-synuclein monomer depletion after 96 hrs by size exclusion chromatography
[12] = target: Alpha-synuclein (Homo sapiens) (UniProt P37840); experiment: Induction of alpha-synuclein aggregation in PBS buffer assessed as formation of alpha-synuclein fibrils after 48 hrs by electron microscopy
[13] = target: Alpha-synuclein (Homo sapiens) (UniProt P37840); experiment: Induction of alpha-synuclein aggregation in PBS buffer assessed as formation of alpha-synuclein fibrils after 96 hrs by electron microscopy
[14] = target: Alpha-synuclein (Homo sapiens) (UniProt P37840); experiment: Induction of alpha-synuclein aggregation in PBS buffer assessed as fluorescence after 44 to 305 hrs in presence of competitive Schiff-base inhibitor aminoguanidine by Thioflavin T fluorescence assay
[15] = system: SH-SY5Y; experiment: Cytotoxicity against human SH-SY5Y cells overexpressing alpha-synuclein at 20 uM after 48 hrs by MTT assay; format: cell-based
[16] = system: SH-SY5Y; experiment: Cytotoxicity against human SH-SY5Y cells overexpressing alpha-synuclein at 20 uM after 48 hrs by LDH assay; format: cell-based
[17] = target: Alpha-synuclein (Homo sapiens) (UniProt P37840); experiment: Induction of alpha-synuclein aggregation in PBS buffer assessed as transition of alpha-synuclein from natively unfolded monomer to cross-beta-sheet conformation after 72 hrs by CD spectroscopy
[18] = target: Alpha-synuclein (Homo sapiens) (UniProt P37840); experiment: Induction of alpha-synuclein aggregation in PBS buffer assessed as alpha-synuclein monomer depletion after 72 hrs by size exclusion chromatography

Activity [17] | Activity [18] | SMILES | CC50 at 48 h [1] | CC50 at 48 h [2] | Activity [3] | Activity [4] | Activity [5] | Activity [6] | Activity [7] | Activity [8] | Activity [9] | Activity [10] | Activity [11] | Activity [12] | Activity [13] | Activity [14] | Activity [15] | Activity [16]
– | – | CC(C)CCC[C@@H](C)[C@H]1CC[C@H]2[C@H](CC(=O)O)[C@@H]([C@@]3(C)CC[C@H](O)CC3=O)CC[C@]12C | 55 µM | 55 µM | 220 a.u. | 330 a.u. | 410 a.u. | 500 a.u. | 40% | 60% | 100% | 50% | 70% | Active | Active | Active | – | –
4% | 19% | CC(C)CCC[C@@H](C)[C@H]1CC[C@H]2[C@@H]3CC=C4C[C@@H](O)CC[C@]4(C)[C@H]3CC[C@]12C [CHOLESTEROL] | – | – | 0 a.u. | 25 a.u. | 30 a.u. | 120 a.u. | 0% | 4% | 100% | 2% | 70% | – | – | – | Non-toxic | Non-toxic
